28 compounds from PubChem BioAssay (NCI) can be followed below.

Molecules are shown by their SMILES.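 Grown in 96-well plates, cells were treated for 48 hours with each compound at five concentrations. Insufficient inhibition: endpoint recorded as highest concentration tested. GI50 = concentration required for 50% inhibition of growth. TGI denotes the concentration required for complete inhibition of growth.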 Bounds are passed on as bounds.

The subject of the first assay is CCRF-CEM leukemia. Briefly: inhibition of tumour cell growth, NCI panel, 48 h.
In turn, `CC1(C)C(=NNC(=O)C[N+](C)(C)C)C(C)(C)C1=NNC(=O)C[N+](C)(C)C` displayed a TGI greater than 100 µM.

`COc1ccc2nc(-c3cccs3)cc(C(O)CN3CCSCC3)c2c1` (configuration not stated): the TGI was determined as 44.9 µM.

With `N#C/C(=C\c1ccc(O)c(O)c1)C(N)=S`, the TGI was greater than 55.3 µM.

For the compound `O=C(CN1CCOCC1)Nc1nc(-c2ccc(Cl)cc2)cs1`, the TGI worked out at 63.9 µM.

`CC1=C(Oc2ccccc2)C(CCC(=O)O)c2c(O)cc(Cl)c(O)c21` (configuration not stated) yielded a TGI greater than 100 µM.

`COc1cc(C(=O)C/C(CCCC(=O)Nc2ccccc2[N+](=O)[O-])=N/NC(=O)c2cc3ccccc3cc2O)ccc1O` yielded a TGI greater than 31.6 µM.

`CC(C)[C@H]1CO[C@]2(C)[C@@H]3CN(Cc4ccccc4)C[C@@H]3C(=O)N12` showed a TGI greater than 100 µM.

In turn, `CCOC(=O)COc1ccccc1/C=C1\CCC(CN(C)C)C1=O` (configuration not stated) gave a TGI of 8.42 µM.

Compound `Cc1c(C(=O)C/C(=N\O)C(=O)Nc2cc(Cl)c(Cl)cc2Cl)[n+](=O)c2ccccc2n1[O-]` came in with a TGI greater than 100 µM.

The compound `CC1=Nc2ccccc2S/C1=C(/C)NNC(=O)C(N)=O` displayed a TGI greater than 100 µM.

As to `Nn1c(NNC(=O)C(=O)Nc2cc(Cl)c(Cl)cc2Cl)n[nH]c1=S`, the TGI is greater than 100 µM.

For `COc1ccc2c(c1)/C(=C\c1c(C)nc3sccn13)C(=O)N2`, the GI50 is 0.0979 µM and the TGI was greater than 100 µM.

In the case of `O=C(N/C(=C\c1ccc2c(c1)OCO2)c1nc2ccccc2[nH]1)c1ccccc1`, the TGI was greater than 89.2 µM.

Compound `CSc1ccc(C2OC(=O)c3ccccc32)c2ccccc12` (configuration not stated) showed a TGI greater than 100 µM.

In turn, `Cc1[nH]ccc2c1[nH]c1cc(=O)ccc12` showed a TGI greater than 100 µM.

With `C#CCOCn1cnc2c(Cl)ncnc21`, the TGI was greater than 100 µM.

On to `NC1C[C@H](n2cc(/C=C/Br)c(=O)[nH]c2=O)C[C@@H]1CO` (some centres not stated), for which the TGI is greater than 100 µM.

As for `O=c1/c(=C/c2ccccc2F)sc2nc3ccccc3n12`, the TGI is greater than 100 µM.

In turn, `Cc1ccc(N=Cc2ccc3c(c2)OCO3)cc1C` showed a TGI greater than 100 µM.

Regarding `COC(C(=O)[O][Ge]([CH3])([CH3])[CH3])c1ccccc1` (configuration not stated), the GI50 was greater than 100 µM and the TGI is greater than 100 µM.

In turn, `CC(=O)OCC1OC(OC2C(CSC3OC(COC(C)=O)C(OC(C)=O)C(OC(C)=O)C3OC(C)=O)OC(OC(C)=O)C(OC(C)=O)C2OC(C)=O)C(OC(C)=O)C(OC(C)=O)C1OC(C)=O` (configuration not stated) returned a TGI greater than 100 µM.

In the case of `COc1ccc(OC)c(NC(=O)C2=C(C)NC(C)=C(C(=O)Nc3cc(OC)ccc3OC)C2c2ccccc2)c1`, the TGI was greater than 100 µM.

The test system of a further assay is SNB-19 CNS. The experiment in a line: inhibition of tumour cell growth, NCI panel, 48 h.
Consider `CCCNC1=C(C(=O)OCC)C(=O)CO1`, for which the TGI is greater than 100 µM.

In turn, `COC(=O)C(=O)C1(CCC(C)=O)c2ccccc2-c2c(C)ccc(C)c21` (configuration not stated) showed a TGI greater than 100 µM.

For the compound `CC1(C)C(=NNC(=O)C[N+](C)(C)C)C(C)(C)C1=NNC(=O)C[N+](C)(C)C`, the TGI is greater than 100 µM.

`COc1ccc2nc(-c3cccs3)cc(C(O)CN3CCSCC3)c2c1` (configuration not stated) displayed a TGI greater than 100 µM.

In turn, `N#C/C(=C\c1ccc(O)c(O)c1)C(N)=S` returned a TGI greater than 100 µM.

The compound `O=C(CN1CCOCC1)Nc1nc(-c2ccc(Cl)cc2)cs1` returned a TGI greater than 100 µM.

In turn, `CC1=C(Oc2ccccc2)C(CCC(=O)O)c2c(O)cc(Cl)c(O)c21` (configuration not stated) yielded a TGI greater than 100 µM.

The compound `COc1cc(C(=O)C/C(CCCC(=O)Nc2ccccc2[N+](=O)[O-])=N/NC(=O)c2cc3ccccc3cc2O)ccc1O` had a TGI greater than 100 µM.

As for `CC(C)[C@H]1CO[C@]2(C)[C@@H]3CN(Cc4ccccc4)C[C@@H]3C(=O)N12`, the TGI was greater than 100 µM.

For `CN(C)C(=O)OC(Cn1cncn1)c1ccc(Cl)cc1Cl` (configuration not stated), the TGI was greater than 100 µM.

For the compound `CCOC(=O)COc1ccccc1/C=C1\CCC(CN(C)C)C1=O` (configuration not stated), the TGI was found to be 20.6 µM.

For the compound `Cc1c(C(=O)C/C(=N\O)C(=O)Nc2cc(Cl)c(Cl)cc2Cl)[n+](=O)c2ccccc2n1[O-]`, the TGI was greater than 100 µM.

The compound `CC1=Nc2ccccc2S/C1=C(/C)NNC(=O)C(N)=O` had a TGI greater than 100 µM.

Compound `Nn1c(NNC(=O)C(=O)Nc2cc(Cl)c(Cl)cc2Cl)n[nH]c1=S` registered a TGI greater than 100 µM.

For `COc1ccc2c(c1)/C(=C\c1c(C)nc3sccn13)C(=O)N2`, the GI50 was 0.525 µM and the TGI was greater than 100 µM.

`O=C(N/C(=C\c1ccc2c(c1)OCO2)c1nc2ccccc2[nH]1)c1ccccc1` gave a TGI greater than 100 µM.

With `CSc1ccc(C2OC(=O)c3ccccc32)c2ccccc12` (configuration not stated), the TGI was greater than 100 µM.

In the case of `Cc1[nH]ccc2c1[nH]c1cc(=O)ccc12`, the TGI was greater than 100 µM.

Consider `C#CCOCn1cnc2c(Cl)ncnc21`, for which the TGI was greater than 100 µM.

With `NC1C[C@H](n2cc(/C=C/Br)c(=O)[nH]c2=O)C[C@@H]1CO` (some centres not stated), the TGI is greater than 100 µM.

As to `O=c1/c(=C/c2ccccc2F)sc2nc3ccccc3n12`, the TGI was greater than 100 µM.

Consider `COc1ccc(-c2n/c(=C\c3c(O)[nH]c4ccc(OC)cc34)cc3c2=Nc2ccccc2-3)cc1`, for which the GI50 was 3.88 µM and the TGI was greater than 100 µM.

The compound `Cc1ccc(N=Cc2ccc3c(c2)OCO3)cc1C` showed a TGI greater than 100 µM.

`COC(C(=O)[O][Ge]([CH3])([CH3])[CH3])c1ccccc1` (configuration not stated): the GI50 is greater than 100 µM and the TGI is greater than 100 µM.

Compound `CC(=O)OCC1OC(OC2C(CSC3OC(COC(C)=O)C(OC(C)=O)C(OC(C)=O)C3OC(C)=O)OC(OC(C)=O)C(OC(C)=O)C2OC(C)=O)C(OC(C)=O)C(OC(C)=O)C1OC(C)=O` (configuration not stated) registered a TGI greater than 100 µM.

`COc1ccc(OC)c(NC(=O)C2=C(C)NC(C)=C(C(=O)Nc3cc(OC)ccc3OC)C2c2ccccc2)c1` gave a TGI greater than 100 µM.

Take `Nc1ccn(CCNCCn2cnc3nc(N)[nH]c(=O)c32)c(=O)n1`: the TGI is greater than 100 µM.

Another assay relates to OVCAR-3 ovarian. The experiment in a line: inhibition of tumour cell growth, NCI panel, 48 h.
Turning to `C/C(=N\NS(=O)(=O)c1ccccc1)c1ccc(Cl)c(Cl)c1`, the TGI is greater than 100 µM.

Turning to `CCCNC1=C(C(=O)OCC)C(=O)CO1`, the TGI was greater than 100 µM.

As to `COC(=O)C(=O)C1(CCC(C)=O)c2ccccc2-c2c(C)ccc(C)c21` (configuration not stated), the TGI was greater than 100 µM.

`CC1(C)C(=NNC(=O)C[N+](C)(C)C)C(C)(C)C1=NNC(=O)C[N+](C)(C)C` came in with a TGI greater than 100 µM.

Compound `COc1ccc2nc(-c3cccs3)cc(C(O)CN3CCSCC3)c2c1` (configuration not stated) showed a TGI greater than 100 µM.

With `N#C/C(=C\c1ccc(O)c(O)c1)C(N)=S`, the TGI is greater than 100 µM.

In turn, `O=C(CN1CCOCC1)Nc1nc(-c2ccc(Cl)cc2)cs1` showed a TGI of 76.9 µM.

The compound `CC1=C(Oc2ccccc2)C(CCC(=O)O)c2c(O)cc(Cl)c(O)c21` (configuration not stated) showed a TGI greater than 100 µM.

In turn, `COc1cc(C(=O)C/C(CCCC(=O)Nc2ccccc2[N+](=O)[O-])=N/NC(=O)c2cc3ccccc3cc2O)ccc1O` showed a TGI greater than 100 µM.

The compound `CC(C)[C@H]1CO[C@]2(C)[C@@H]3CN(Cc4ccccc4)C[C@@H]3C(=O)N12` showed a TGI greater than 100 µM.

`CN(C)C(=O)OC(Cn1cncn1)c1ccc(Cl)cc1Cl` (configuration not stated): the TGI is greater than 100 µM.

As for `CCOC(=O)COc1ccccc1/C=C1\CCC(CN(C)C)C1=O` (configuration not stated), the TGI amounted to 20.6 µM.

In turn, `Cc1c(C(=O)C/C(=N\O)C(=O)Nc2cc(Cl)c(Cl)cc2Cl)[n+](=O)c2ccccc2n1[O-]` came in with a TGI of 7.52 µM.
